Experiment [1] deals with Streptococcus sp. 'group A'. Put plainly: Streptococcus pyogenes SK(-)GAS viability under kanamycin – luminescence, BacTiterGlo, confirmation, counter-screen for streptokinase expression inhibitor project, dose response (AID 1900). In kind it is functional, organism-based. For orientation: A counterscreen serves to expose hits that act by an unwanted route or on another target.

The subject of another experiment is INS1. The experiment is described as follows: INS-1E survival protection against cytokine death – cell-based, luminescence, retest, dose response (AID 449756).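 Note: cell death triggered by IL-1 beta plus TNF-alpha plus IFN-gamma mixture; protective hits raise ATP signal compared with cytokine alone wells.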 In kind it is functional. The following applies: Rattus norvegicus.
Experiment [2] in a line: NIH3T3 cell viability loss – ATP luminescence, mouse fibroblasts, counter-screen, dose response (AID 2010).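 Note: cells exposed to compound for about 90 hours before reading.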 In kind it is functional, cell-based.
The nature of experiment [3]: Trypanosoma cruzi growth suppression in host cells – NIH3T3 host cells, beta-gal luminescence, confirmation (AID 2044).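 Note: intracellular parasites grown in NIH/3T3 mouse fibroblasts as host cells; luminescent beta-galactosidase reporter signal from transgenic T. cruzi replicating inside host cells; inhibitors lower the luminescence signal.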 In kind it is functional, cell-based.
For experiment [4], the target named is T1, Serine/threonine-protein phosphatase (Candida dubliniensis (strain CD36 / CBS 7987 / NCPF 3949 / NRRLY-17841) (Yeast), UniProt B9W6M3).
T1 sequence (B9W6M3 whole entry): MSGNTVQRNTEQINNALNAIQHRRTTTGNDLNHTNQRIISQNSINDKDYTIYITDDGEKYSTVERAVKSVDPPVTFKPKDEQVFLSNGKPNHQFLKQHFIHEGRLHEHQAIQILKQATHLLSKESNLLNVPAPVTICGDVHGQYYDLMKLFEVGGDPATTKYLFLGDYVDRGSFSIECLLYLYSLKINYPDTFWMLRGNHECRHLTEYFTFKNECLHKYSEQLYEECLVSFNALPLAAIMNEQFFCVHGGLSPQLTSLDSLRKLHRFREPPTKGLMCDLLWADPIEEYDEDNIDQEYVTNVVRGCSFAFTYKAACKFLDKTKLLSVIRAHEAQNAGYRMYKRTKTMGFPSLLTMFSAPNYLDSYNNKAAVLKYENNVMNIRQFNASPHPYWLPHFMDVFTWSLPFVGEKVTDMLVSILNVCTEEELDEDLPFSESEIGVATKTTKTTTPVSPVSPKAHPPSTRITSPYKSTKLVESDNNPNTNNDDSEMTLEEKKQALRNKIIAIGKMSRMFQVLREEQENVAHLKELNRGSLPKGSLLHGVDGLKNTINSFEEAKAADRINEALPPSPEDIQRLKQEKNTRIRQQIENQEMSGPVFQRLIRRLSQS
Put plainly: blockers of CaCl2-induced CDRE-lacZ signaling – S. cerevisiae, luminescence, secondary, dose response (AID 2388).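 Note: yeast reporter cells carrying a calcineurin-responsive lacZ construct stimulated with calcium chloride; luminescent beta-galactosidase reporter signal in whole cells rather than isolated phosphatase activity; potency for inhibition where a drop in reporter signal means calcineurin blockade.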 In kind it is functional, cell-based.

A short description of experiment [5]: luciferase reporter signal suppression in cells – H4 neuroglioma cells, luminescence, dose response (AID 1990). In kind it is functional, cell-based. For orientation: A reporter such as luciferase makes a cellular process visible.
Experiment [6] has as its target T2, Replicative DNA helicase DnaB (Mycobacterium tuberculosis, UniProt P9WMR3).
T2 sequence (P9WMR3 whole entry): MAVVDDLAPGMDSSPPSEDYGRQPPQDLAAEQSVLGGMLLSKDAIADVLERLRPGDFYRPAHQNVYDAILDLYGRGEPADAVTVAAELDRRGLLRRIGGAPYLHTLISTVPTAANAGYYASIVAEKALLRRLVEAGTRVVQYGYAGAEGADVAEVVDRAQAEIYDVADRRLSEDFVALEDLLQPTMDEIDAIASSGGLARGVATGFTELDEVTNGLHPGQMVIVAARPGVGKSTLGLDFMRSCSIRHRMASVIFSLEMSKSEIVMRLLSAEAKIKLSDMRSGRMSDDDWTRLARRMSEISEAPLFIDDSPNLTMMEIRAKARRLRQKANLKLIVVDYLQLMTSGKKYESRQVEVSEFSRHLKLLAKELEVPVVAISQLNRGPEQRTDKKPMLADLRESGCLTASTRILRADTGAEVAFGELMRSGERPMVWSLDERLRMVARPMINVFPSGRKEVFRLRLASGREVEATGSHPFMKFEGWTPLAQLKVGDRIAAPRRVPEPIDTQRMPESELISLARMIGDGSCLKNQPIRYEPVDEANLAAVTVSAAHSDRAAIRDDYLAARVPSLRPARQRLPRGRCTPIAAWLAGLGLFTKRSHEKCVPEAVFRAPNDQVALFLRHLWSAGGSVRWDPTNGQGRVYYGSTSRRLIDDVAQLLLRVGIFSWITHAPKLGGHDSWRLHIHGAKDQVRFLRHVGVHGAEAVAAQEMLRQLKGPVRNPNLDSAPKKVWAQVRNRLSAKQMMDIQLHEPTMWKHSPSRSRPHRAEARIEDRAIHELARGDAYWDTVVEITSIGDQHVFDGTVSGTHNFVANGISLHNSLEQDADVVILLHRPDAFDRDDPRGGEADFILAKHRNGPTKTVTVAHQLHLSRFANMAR
Put plainly: DnaB intein splicing inhibitors, dose response, biochemical, cell-free fluorescence (AID 449749). In kind it is functional.

Another experiment has as its target T3, Caspase-3 (Homo sapiens, UniProt P42574).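 Note: Dose-response selectivity test against caspase-3 for candidate inhibitors of sentrin-specific proteases (SENPs).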
T3 sequence (P42574 whole entry): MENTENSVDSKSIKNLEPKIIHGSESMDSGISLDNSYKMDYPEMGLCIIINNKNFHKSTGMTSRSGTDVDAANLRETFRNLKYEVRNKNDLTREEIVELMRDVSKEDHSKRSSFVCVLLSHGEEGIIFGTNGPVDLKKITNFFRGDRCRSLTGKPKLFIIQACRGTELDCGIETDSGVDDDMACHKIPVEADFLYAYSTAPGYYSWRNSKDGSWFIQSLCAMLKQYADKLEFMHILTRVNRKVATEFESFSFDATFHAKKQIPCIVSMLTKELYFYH
In kind it is functional.

The target in the next experiment is Aurora kinase B (Homo sapiens, UniProt Q96GD4). In kind it is functional.
The target in experiment [7] is Calcium/calmodulin-dependent protein kinase type II subunit alpha (Homo sapiens, UniProt Q9UQM7). The experiment is described as follows: Navigating the Kinome. Panel member name: CAMK2A. In kind it is functional.
Experiment [8] concerns the target Dual specificity protein kinase CLK4 (Homo sapiens, UniProt Q9HAZ1). In kind it is functional.
Experiment [9] has as its target Mitogen-activated protein kinase kinase kinase kinase 4 (Homo sapiens, UniProt O95819). In kind it is functional.
Experiment [10] addresses Tyrosine-protein kinase JAK2 (Homo sapiens, UniProt O60674). In kind it is functional.
The target in experiment [11] is Dual specificity protein kinase CLK2 (Homo sapiens, UniProt P49760). In kind it is functional.
The target of experiment [12] is Hepatocyte growth factor receptor (Homo sapiens, UniProt P08581). In kind it is functional.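 Note: kinase panel profiling across the kinome, with MET as the panel member.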
For the next experiment, the target named is Activin receptor type-1 (Homo sapiens, UniProt Q04771). Put plainly: Navigating the Kinome. Panel member name: ACVR1. In kind it is functional.
The target of experiment [13] is Mitogen-activated protein kinase 14 (Homo sapiens, UniProt Q16539). In kind it is functional.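 Note: part of a kinome-wide panel, MAPK14 entry.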
The target in experiment [14] is Mitogen-activated protein kinase 9 (Homo sapiens, UniProt P45984). In kind it is functional.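 Note: value from a kinome panel profiling assay, MAPK9 panel entry.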
For experiment [15], the target named is Glycogen synthase kinase-3 beta (Homo sapiens, UniProt P49841). In kind it is functional.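 Note: value comes from a broad kinome profiling panel, with GSK3B as the panel member.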
The target in experiment [16] is Protein kinase C theta type (Homo sapiens, UniProt Q04759). The experiment is described as follows: Navigating the Kinome. Panel member name: PRKCQ. In kind it is functional.
For experiment [17], the target named is Mitogen-activated protein kinase 8 (Homo sapiens, UniProt P45983). In kind it is functional.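 Note: value comes from one member of a kinome-wide kinase profiling panel.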

The source of these data is ChEMBL document CHEMBL1201862, “PubChem BioAssay data set” (2004).

As usually defined, the EC50 is the concentration that produces a half-maximal response. As usually defined, the AC50 is the concentration at which the activity in the assay is half-maximal. A word on the IC50: it is the point on the concentration scale where inhibition reaches its midpoint. The term Ki denotes a measure of affinity in units of concentration, obtained from inhibition or displacement.

The source made the active and inactive calls.

Sequence of Hepatocyte growth factor receptor (P08581 whole entry): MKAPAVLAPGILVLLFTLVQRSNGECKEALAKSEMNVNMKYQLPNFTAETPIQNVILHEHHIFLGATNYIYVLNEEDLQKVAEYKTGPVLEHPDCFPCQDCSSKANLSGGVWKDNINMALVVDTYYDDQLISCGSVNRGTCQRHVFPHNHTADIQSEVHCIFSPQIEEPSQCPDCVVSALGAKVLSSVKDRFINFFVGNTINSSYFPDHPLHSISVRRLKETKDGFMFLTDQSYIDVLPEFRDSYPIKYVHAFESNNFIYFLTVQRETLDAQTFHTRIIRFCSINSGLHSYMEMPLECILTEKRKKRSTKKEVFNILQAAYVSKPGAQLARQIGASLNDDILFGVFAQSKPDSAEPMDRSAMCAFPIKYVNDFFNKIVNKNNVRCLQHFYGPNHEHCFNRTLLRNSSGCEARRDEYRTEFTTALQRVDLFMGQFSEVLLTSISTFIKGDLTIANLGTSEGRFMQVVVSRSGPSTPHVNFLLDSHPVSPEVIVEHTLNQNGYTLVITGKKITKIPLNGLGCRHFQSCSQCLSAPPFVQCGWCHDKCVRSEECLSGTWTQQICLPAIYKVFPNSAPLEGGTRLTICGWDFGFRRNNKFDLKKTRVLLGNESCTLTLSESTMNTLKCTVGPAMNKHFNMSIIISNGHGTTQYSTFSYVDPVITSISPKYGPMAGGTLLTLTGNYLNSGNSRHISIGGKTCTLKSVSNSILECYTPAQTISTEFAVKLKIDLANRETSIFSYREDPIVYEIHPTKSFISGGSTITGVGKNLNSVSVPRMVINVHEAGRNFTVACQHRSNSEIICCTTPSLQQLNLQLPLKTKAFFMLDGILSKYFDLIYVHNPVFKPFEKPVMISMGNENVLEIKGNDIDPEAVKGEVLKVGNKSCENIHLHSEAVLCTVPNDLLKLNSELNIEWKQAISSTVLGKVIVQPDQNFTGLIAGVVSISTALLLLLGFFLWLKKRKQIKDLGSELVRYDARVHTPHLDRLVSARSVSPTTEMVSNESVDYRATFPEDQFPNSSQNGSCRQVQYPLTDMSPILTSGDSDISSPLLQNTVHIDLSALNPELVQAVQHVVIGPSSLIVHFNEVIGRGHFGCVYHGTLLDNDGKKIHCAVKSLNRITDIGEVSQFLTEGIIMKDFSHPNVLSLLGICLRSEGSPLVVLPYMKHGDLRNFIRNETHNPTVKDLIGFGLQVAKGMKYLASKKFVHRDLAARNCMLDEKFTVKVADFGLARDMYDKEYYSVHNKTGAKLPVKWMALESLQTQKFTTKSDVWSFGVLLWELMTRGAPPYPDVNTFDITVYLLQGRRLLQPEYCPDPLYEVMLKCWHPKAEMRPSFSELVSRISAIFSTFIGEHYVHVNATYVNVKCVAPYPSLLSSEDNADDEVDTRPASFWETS
Sequence of Mitogen-activated protein kinase kinase kinase kinase 4 (O95819 whole entry): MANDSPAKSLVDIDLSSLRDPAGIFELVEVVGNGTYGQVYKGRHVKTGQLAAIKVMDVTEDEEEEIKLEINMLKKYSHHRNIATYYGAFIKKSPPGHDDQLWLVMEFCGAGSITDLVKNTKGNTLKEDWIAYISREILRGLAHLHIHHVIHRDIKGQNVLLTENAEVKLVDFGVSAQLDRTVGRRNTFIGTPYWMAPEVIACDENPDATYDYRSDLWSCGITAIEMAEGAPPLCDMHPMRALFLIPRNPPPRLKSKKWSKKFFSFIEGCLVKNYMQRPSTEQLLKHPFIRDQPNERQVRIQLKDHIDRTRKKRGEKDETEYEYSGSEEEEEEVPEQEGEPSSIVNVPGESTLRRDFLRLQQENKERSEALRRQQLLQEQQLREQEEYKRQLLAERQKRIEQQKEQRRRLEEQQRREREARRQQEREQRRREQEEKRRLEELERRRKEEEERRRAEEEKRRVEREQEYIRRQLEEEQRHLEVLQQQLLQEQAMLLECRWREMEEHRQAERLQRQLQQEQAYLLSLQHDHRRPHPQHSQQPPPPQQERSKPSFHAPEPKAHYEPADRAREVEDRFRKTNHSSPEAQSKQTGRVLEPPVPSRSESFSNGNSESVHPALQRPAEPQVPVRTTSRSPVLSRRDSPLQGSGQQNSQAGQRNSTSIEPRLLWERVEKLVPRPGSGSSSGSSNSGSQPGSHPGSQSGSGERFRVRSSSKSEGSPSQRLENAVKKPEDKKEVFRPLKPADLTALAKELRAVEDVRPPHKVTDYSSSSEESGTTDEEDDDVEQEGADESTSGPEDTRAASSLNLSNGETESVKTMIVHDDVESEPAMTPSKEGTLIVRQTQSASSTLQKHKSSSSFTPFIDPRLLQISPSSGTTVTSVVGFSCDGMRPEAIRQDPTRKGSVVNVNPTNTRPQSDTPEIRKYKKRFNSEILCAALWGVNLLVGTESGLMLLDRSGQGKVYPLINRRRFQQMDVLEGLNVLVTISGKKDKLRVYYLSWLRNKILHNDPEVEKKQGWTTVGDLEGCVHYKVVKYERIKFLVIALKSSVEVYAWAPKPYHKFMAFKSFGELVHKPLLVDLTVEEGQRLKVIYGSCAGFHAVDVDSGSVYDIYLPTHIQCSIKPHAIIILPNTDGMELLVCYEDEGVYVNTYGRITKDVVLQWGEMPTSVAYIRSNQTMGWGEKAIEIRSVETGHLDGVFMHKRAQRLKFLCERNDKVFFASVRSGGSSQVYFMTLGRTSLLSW
Sequence of Calcium/calmodulin-dependent protein kinase type II subunit alpha (Q9UQM7 whole entry): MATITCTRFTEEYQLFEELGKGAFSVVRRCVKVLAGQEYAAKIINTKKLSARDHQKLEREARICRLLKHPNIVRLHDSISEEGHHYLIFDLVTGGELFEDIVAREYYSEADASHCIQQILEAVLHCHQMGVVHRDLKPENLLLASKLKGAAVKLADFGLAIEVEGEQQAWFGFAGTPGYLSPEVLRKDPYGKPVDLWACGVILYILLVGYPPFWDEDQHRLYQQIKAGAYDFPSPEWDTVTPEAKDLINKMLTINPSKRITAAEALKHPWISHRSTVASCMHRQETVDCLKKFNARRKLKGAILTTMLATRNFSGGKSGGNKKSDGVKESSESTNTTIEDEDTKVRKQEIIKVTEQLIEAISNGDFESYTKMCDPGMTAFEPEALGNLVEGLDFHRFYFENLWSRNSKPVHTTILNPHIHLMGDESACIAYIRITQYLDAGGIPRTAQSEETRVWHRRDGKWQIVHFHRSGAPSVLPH
Sequence of Dual specificity protein kinase CLK4 (Q9HAZ1 whole entry): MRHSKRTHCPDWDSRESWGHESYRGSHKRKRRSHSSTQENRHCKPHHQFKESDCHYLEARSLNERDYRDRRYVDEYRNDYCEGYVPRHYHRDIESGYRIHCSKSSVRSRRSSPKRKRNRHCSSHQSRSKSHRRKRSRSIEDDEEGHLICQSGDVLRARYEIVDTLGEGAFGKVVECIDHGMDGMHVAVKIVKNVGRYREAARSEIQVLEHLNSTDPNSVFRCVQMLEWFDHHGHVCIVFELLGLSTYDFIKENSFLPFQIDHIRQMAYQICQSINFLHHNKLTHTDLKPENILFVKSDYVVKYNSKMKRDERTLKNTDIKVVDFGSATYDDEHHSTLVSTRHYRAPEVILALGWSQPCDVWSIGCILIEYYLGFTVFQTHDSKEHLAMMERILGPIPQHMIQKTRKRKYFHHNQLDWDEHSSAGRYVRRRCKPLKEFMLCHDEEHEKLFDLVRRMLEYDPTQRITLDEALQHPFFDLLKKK
Sequence of Activin receptor type-1 (Q04771 whole entry): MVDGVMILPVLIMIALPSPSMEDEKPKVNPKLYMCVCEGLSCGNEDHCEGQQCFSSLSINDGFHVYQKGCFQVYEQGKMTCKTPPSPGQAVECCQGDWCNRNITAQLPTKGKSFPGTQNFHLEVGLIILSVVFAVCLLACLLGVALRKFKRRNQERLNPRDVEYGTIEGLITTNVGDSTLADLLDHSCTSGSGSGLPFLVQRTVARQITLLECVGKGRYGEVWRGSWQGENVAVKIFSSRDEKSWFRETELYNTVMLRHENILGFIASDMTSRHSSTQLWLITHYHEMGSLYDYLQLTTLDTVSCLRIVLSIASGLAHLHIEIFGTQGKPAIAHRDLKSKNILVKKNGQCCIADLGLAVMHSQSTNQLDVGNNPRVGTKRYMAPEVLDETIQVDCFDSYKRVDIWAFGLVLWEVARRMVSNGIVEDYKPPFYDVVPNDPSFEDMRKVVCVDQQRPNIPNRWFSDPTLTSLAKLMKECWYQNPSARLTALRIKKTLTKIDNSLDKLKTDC
Sequence of Mitogen-activated protein kinase 8 (P45983 whole entry): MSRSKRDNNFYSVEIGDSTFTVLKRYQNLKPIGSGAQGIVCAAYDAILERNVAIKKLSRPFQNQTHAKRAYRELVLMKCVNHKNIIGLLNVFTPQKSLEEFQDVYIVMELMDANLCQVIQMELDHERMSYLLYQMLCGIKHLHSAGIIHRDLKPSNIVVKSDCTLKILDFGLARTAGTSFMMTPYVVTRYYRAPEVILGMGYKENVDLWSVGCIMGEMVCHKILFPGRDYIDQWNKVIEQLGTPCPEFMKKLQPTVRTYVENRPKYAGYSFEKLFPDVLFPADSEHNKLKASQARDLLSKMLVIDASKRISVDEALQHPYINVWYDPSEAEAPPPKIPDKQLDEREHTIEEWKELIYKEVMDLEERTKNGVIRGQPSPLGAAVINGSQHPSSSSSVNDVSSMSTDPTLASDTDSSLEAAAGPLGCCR
Sequence of Glycogen synthase kinase-3 beta (P49841 whole entry): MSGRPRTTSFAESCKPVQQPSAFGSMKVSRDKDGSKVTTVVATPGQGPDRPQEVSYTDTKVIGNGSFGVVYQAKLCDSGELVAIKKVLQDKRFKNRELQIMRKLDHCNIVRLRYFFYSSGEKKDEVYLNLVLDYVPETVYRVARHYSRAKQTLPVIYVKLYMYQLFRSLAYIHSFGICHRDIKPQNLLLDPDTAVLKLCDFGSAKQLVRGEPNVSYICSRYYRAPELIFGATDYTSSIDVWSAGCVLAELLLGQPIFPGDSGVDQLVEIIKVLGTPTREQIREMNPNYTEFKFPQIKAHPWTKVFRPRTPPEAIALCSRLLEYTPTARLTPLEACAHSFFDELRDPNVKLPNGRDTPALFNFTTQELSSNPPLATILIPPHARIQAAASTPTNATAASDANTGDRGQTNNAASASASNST

As to `CN1CCN(C(c2ccc(C(F)(F)F)cc2)c2cc(Cl)c3cccnc3c2O)CC1` (stereo unspecified), the EC50 was 0.558 µM (active) in experiment [1]; 6.54 µM (active) in experiment [2]; 1.32 µM (active) in experiment [3]; > 180 µM (inactive) in [4]; 10.5 µM (active) in experiment [5]. Besides, the half-maximal activity concentration (AC50) with INS1 is 3.18 µM (active); in [6], 11.9 µM (active).
For the molecule `NC(=O)c1c(NC(=O)c2cc3ccccc3o2)sc2c1CCC2`, at Caspase-3, the IC50 is 15.1 µM (active).
On to `O=C(NC(CCO)c1ccccc1)c1ccc(-c2ccncc2)cc1` (stereo unspecified), for which the Ki was > 3.98 µM (inactive) on Aurora kinase B; > 7.94 µM (inactive) in experiment [7]; 0.316 µM (active) in experiment [8]; > 5.01 µM (inactive) in experiment [9]; > 2.51 µM (inactive) in experiment [10]; > 3.98 µM (inactive) in experiment [11]. The Ki in experiment [12] is > 2.51 µM (inactive); at Activin receptor type-1, > 3.98 µM (inactive); in [13], > 3.98 µM (inactive); in [14] it was > 3.98 µM (inactive); in experiment [15], 1.26 µM (active); in [16], 1.58 µM (active). For the same molecule, the Ki in experiment [17] was > 5.01 µM (inactive).
